For assay [1], the system named is Aspergillus fumigatus (akuBKu80 hFKBP12). Particulars: previously shown; cited from earlier work.
The test system is the same in assay [2]. The assay can be described thus: MIC/MEC against humanized A. fumigatus strain. The class given is cell-based. As for the experimental part: To confirm that JH-FK-05 was fungal FKBP12-dependent, a humanized A. fumigatus strain (the akuB^Ku80 hFKBP12 strain) expressing a codon-optimized human FKBP12 gene from the Affkbp12 native locus was utilized.
In vitro antifungal activities of FK506, FK520, and analogs were assessed in RPMI 1640 (Sigma-Aldrich) for all strains tested. MICs/minimum effective concentrations (MECs) for each drug were measured using modified Clinical and Laboratory Standards Institute (CLSI) M38-A2 and M27-A3 standard in vitro antifungal susceptibility protocols. Broth microdilution assays for MIC/MEC assessment were performed as described previously (see, Juvvadi P R, et al., 2019, Nat Commun 10:4275). All antifungal assays with C. neoformans were performed at 37° C. Antifungal susceptibility testing for C. albicans was performed in the presence of a uniform 1 μg/mL concentration of fluconazole to sensitize the organism to calcineurin inhibition.

Assay [3] relates to Cryptococcus deneoformans. Briefly: MIC assay (Example 3). The class given is cell-based. Particulars: 72 hours with 5 times starting amount of cells. As for the experimental part: For the lead compound JH-FK-08, the mechanism of action resulting in antifungal activity was tested for conservation of calcineurin inhibition. To probe the JH-FK-08 mechanism of action, MICs of JH-FK-08 were determined with fungal mutants that lack the drug-binding protein FKBP12 or have mutations in the binding site on calcineurin that prevent FKBP12-FK506 binding and inhibition. […] Taken together, these findings support the hypothesis that JH-FK-08 requires FKBP12 for antifungal activity, and the target of the FKBP12-JH-FK-08 complex is calcineurin. The length of time that drugs are active in vivo is critical information relevant to drug development, and the time frame of drug activity can have a drastic impact on treatment regimen and efficacy. Therefore, the pharmacokinetic profiles of FK506 and JH-FK-08 were investigated. Three male and three female CD1 mice were administered a single dose of JH-FK-08 or FK506 at 40 mg/kg. Whole blood samples were taken over a 24-hour period, and the drug concentration remaining in the blood was determined. Pharmacokinetic parameters were calculated using a non-compartmental approach (see, Gabrielsson J, Weiner D. 2012. Methods Mot Biol Clifton NJ 929:377-389). […] When assessing specific pharmacokinetic measures, sex differences began to emerge.
In vitro antifungal activity was assessed for all fungal strains in RPMI 1640 (Sigma-Aldrich R1383). MICs were measured using Clinical and Laboratory Standards Institute (CLSI) M38-A2 and M27-A3 standard in vitro antifungal susceptibility protocols. C. neoformans and A. fumigatus testing was performed at 37° C. MECs for A. fumigatus were recorded after 48 h of growth. C. albicans testing was performed at 30° C. with a uniform concentration of 2 μg/mL of fluconazole to sensitize the cells to calcineurin inhibition.
C. neoformans clinical isolate H99 and congenic-derived strain KN99α were used (see, Nielsen K, et al., 2003. Infect Immun 71:4831-4841). […]

Another assay has as its system C. neoformans strain H99. Briefly: Histopathological analysis of lung tissue. The class given is in vivo, Cryptococcus neoformans in A/J mice. Particulars: infected lung, PAS and H&E staining.

SMILES strings stand for the structures.

Take `C=CCC1C=C(C)CC(C)CC(OC)C2OC(O)(C(=O)C(=O)N3CCCCC3C(=O)OC(C(C)=CC3CCC(O)C(OC)C3)C(C)C(O)CC1=O)C(C)CC2OC` (stereo not shown) [FK506, reference compound]: the “resistance of hFKBP12-expressing strain” value in assay [1] was “completely resistant”.

For the molecule `CC[C@@H]1/C=C(\C)C[C@H](C)C[C@H](OC)[C@H]2O[C@@](O)(C(=O)C(=O)N3CCCC[C@H]3C(=O)O[C@H](/C(C)=C/[C@@H]3CC[C@@H](O)[C@H](OC)C3)[C@H](C)[C@@H](O)C/C1=N/NC(C)=O)[C@H](C)C[C@@H]2OC` [JH-FK-05], the “antifungal activity against hFKBP12-expressing A. fumigatus strain” value in assay [2] is “no detectable antifungal activity”. The same molecule registered an MIC/MEC in assay [2] (strain akuBKu80 hFKBP12) greater than 8 µg/mL.

`CC[C@@H]1/C=C(\C)C[C@H](C)C[C@H](OC)[C@H]2O[C@@](O)(C(=O)C(=O)N3CCCC[C@H]3C(=O)O[C@H](/C(C)=C/C3CC[C@@H](O)[C@H](OC)C3)[C@H](C)[C@@H](O)C/C1=N/NC(=O)OC)[C@H](C)C[C@@H]2OC` (stereo partly shown) [JH-FK-08]: the MIC/MEC in assay [3] (strain C21F2 (JEC21 CNB1-1)) was greater than 25 µg/mL; in assay [3] (strain C21F3 (JEC21 frr1)), greater than 25 µg/mL; in assay [3] (strain JEC21) it was less than 0.4 µg/mL. In addition, the “inflammatory response in lung tissue” value with C. neoformans strain H99 was “expected granulomatous inflammatory response admixed with mature lymphocytes and neutrophils”.

These data come from patent publication US20260315446A1, “ANTIFUNGAL COMPOUNDS AND USES THEREOF” (priority 2023, published 2026).
